Laboratory results published in patent US10174067B2, “Type of cytidine derivative and application thereof” (priority 2014, dated 2019).
Marks after values point to notes of the source that are not given here.

Key:
ICR mice = assay: in vivo; conditions: female ICR mice; single-dose ip
Procedure: This experiment was to investigate the toxic effects of single-dose intraperitoneal administration on ICR mice and determine the maximum tolerated dose (MTD) of each subject. Maximum tolerated dose (MTD) refers to the dose that may not cause an animal to die, may not cause the animal to suffer weight loss exceeding 10% (compared with Day 0), or may not produce significant side effects.
(§1) The corresponding amount of test substance was taken in a 5 mL glass tube and dissolved in ethanol with a 5 mm magnetic stirrer for stirring. After dissolving completely, Cremophor EL was added with continuous stirring. The marked amount of saline was added and mixed evenly before use. The volume ratio of ethanol, Cremophor EL, and physiological saline was 5:5:90.
Varieties and lines: ICR mice; level: SPF; sex: female.
Method of administration: ip. The dose was reduced in case of animal death, till an animal survived; the dose was increased in case of no animal death; the test was ended when the animals survived normally at the given high dose. Finally, the MTD of the mice on the test substances was determined according to the test results. The animals were observed continuously for 7 days after acute administration.
During the experiment, all animals were under detailed and continuous clinical observation for […], twice a day (10:00 am, 16:00 pm) after administration. The observation included but not limited to: skin, hair, ear, nose, mouth, chest, abdomen, external genitalia, limbs and feet, respiratory and circulatory system, autonomic effects (such as salivation), nervous system (such as tremor, convulsions, stress response and abnormal behavior).
The body of animals was weighed before administration, and then weighed and recorded at the same time each day.
The observation results, animal body weight, and animal survival after one week of administration were recorded in detail every day.

[1] = system: HCT-116 colon cancer xenografts; assay: Tumor growth inhibition of HCT-116 colon cancer xenografts in tumor-bearing nude mice (tumor volume, TGI %, RTV, T/C %); format: in vivo, Balb/c Nude mice
Procedure: 4.1 Tumor cells: colon cancer HCT-116 cells, purchased from the Institute of Cell Biology, Chinese Academy of Sciences. The cells were incubated by F-12 medium (containing 10% FBS) in carbon dioxide incubator at 37° C. and in saturated humidity, with 5% CO2 and 95% air in volume fraction. Before inoculation, the cells at logarithmic phase were taken, and digested with 0.25% trypsin, washed once with PBS and resuspended in PBS for counting. The cells were resuspended in serum-free medium and adjusted to about 3×10^7 cell/mL.
The grouping is as follows:
The formations of tumor at the inoculation site of each group of nude mice were observed. The diameter of tumor nodule (D) was measured three times a week with round hole ruler, and the volume of tumor nodule (V) was calculated according to the following formula: […].
Anti-tumor activity was evaluated by tumor growth inhibition rate TGI (%) and relative tumor proliferation rate T/C (%).
The relative tumor volume (RTV) was calculated as: RTV=Vt/V0, where V0 was the tumor volume when they were grouped and administered, and Vt was the tumor volume at the time of measurement.
The relative proliferation rate T/C (%) was calculated as: […].
TRTV: RTV of the treatment group; CRTV: RTV of the control group.
P<0.05 was considered as significant difference.

[2] = Procedure: To determine the growth inhibition effect and toxicity of the cytidine derivative samples of the present invention on the transplanted tumor of nude mice bearing colon cancer HCT-116.
as §1
Varieties and lines; Balb/c Nude mice; level: SPF; sex: female.
4.2 Animal inoculation and grouping: Each nude mouse was inoculated subcutaneously with 0.1 mL of cell suspension (3×10^6 cell/mouse) at right side of hind limb in a sterile stale. When the tumor grew to about 60-150 mm^3, the nude mice with similar tumor volume and desirable shape were selected (it would be better to select single spherical shape, no irregular shape or multiple tumors grouped together) for grouping, 6 mice a group. The grouping is as follows:
The control group, namely the model control group, was injected with a mixture of ethanol, Cremophor EL, and saline (5:5:90).
Those mice were weighed three times a week.
All clinical symptoms of each animal should be recorded at the beginning of the test and during the test. The observations should be made at the same time each day.
An animal would be killed by CO2 when its weight loss was more than 20%, when it was about to die, or when its tumor volume exceeded 2800 mm^3. The tumor was separated and weighed, and the animal was autopsied and observed to evaluate and record whether there were pathological changes in the organs.
The data were expressed as Mean±SEM unless specially provided; Non-pairing T test was performed for the data between the two groups. P<0.05 was considered as significant difference.

[3] = Day 0, G3-G9 groups, single IP dose, Mean±SEM
[4] = Day 4, G3-G9 groups, single IP dose, Mean±SEM
[5] = Day 6, G3-G9 groups, single IP dose, Mean±SEM
[6] = Day 8, G3-G9 groups, single IP dose, Mean±SEM
[7] = Day 11, G3-G9 groups, single IP dose, Mean±SEM
[8] = Day 13, G3-G9 groups, single IP dose, Mean±SEM
[9] = Day 15, G3-G9 groups, single IP dose, Mean±SEM
[10] = Day 18, G3-G9 groups, single IP dose, Mean±SEM
[11] = Day 20, G3-G9 groups, single IP dose, Mean±SEM
[12] = Day 22, G3-G9 groups, single IP dose, Mean±SEM

O=C(Nc1ccn([C@@H]2O[C@H](CO)[C@@H](O)C2(F)F)c(=O)n1)OCc1ccc([N+](=O)[O-])cc1 [Compound G5, 4-N-(4-nitrocarboxybenzyl)-2′-deoxy-2′,2′-difluorocytidine]
dose that could be tolerated (maximum tolerated dose, MTD) (ICR mice): 300 mg/kg
Day 0 (RTV) [1, 3]: 1.00 ± 0.00
Tumor volume, Day 0 [1, 3]: 65.68 ± 20.50** mm^3
Day 4 (TGI %) ([1]; Day 4, G3-G9 groups, single IP dose): 77.08%
Day 4 (RTV) [1, 4]: 0.89 ± 0.17
Tumor volume, Day 4 [1, 4]: 61.06 ± 22.28** mm^3
Day 6 (TGI %) ([1]; Day 6, G3-G9 groups, single IP dose): 90.77%
Day 6 (RTV) [1, 5]: 0.62 ± 0.08
Tumor volume, Day 6 [1, 5]: 39.01 ± 12.19** mm^3
Day 8 (TGI %) ([1]; Day 8, G3-G9 groups, single IP dose): 93.03%
Day 8 (RTV) [1, 6]: 0.53 ± 0.06
Tumor volume, Day 8 [1, 6]: 36.63 ± 13.03** mm^3
tumor inhibition effect ([1]; Day 8 to Day 13 after single-dose intraperitoneal administration): good tumor inhibition effect
Day 11 (TGI %) ([1]; Day 11, G3-G9 groups, single IP dose): 94.46%
Day 11 (RTV) [1, 7]: 0.60 ± 0.08
Tumor volume, Day 11 [1, 7]: 44.57 ± 18.01** mm^3
Day 13 (TGI %) ([1]; Day 13, G3-G9 groups, single IP dose): 93.46%
Day 13 (RTV) [1, 8]: 1.04 ± 0.14
Tumor volume, Day 13 [1, 8]: 75.90 ± 28.06** mm^3
Day 15 (TGI %) ([1]; Day 15, G3-G9 groups, single IP dose): 90.78%
Day 15 (RTV) [1, 9]: 1.91 ± 0.35
Tumor volume, Day 15 [1, 9]: 130.29 ± 45.17** mm^3
Day 18 (TGI %) ([1]; Day 18, G3-G9 groups, single IP dose): 87.26%
Day 18 (RTV) [1, 10]: 3.76 ± 0.64
Tumor volume, Day 18 [1, 10]: 235.85 ± 70.86** mm^3
Day 20 (TGI %) ([1]; Day 20, G3-G9 groups, single IP dose): 80.09%
Day 20 (RTV) [1, 11]: 8.51 ± 3.10
Tumor volume, Day 20 [1, 11]: 421.94 ± 104.20** mm^3
Day 22 (TGI %) ([1]; Day 22, G3-G9 groups, single IP dose): 74.55%
Day 22 (RTV) [1, 12]: 13.37 ± 4.65
Tumor volume, Day 22 [1, 12]: 665.68 ± 158.57** mm^3
T/C % on Day 22 ([1]; Day 22, G4 350 mg/kg, G5 325 mg/kg, G7 250 mg/kg, single IP): 68.77%
relative tumor volume compared with the model control group ([1]; G4 and G5 Day 4 to Day 18, G7 Day 4 to Day 15 (p<0.05-0.01), G9 only Day 4 (p<0.05)): reduced significantly
maximum value of TGI % ([1]; day of maximum: G3 Day 8, G4 Day 11, G5 Day 11, G9 Day 4, G7 Day 8, single IP): 94.46%
minimum value of T/C % ([1]; day of minimum: G4 Day 13, G5 Day 11, G7 Day 8, single IP): 10.01%
Weight change rate, Day 0 [2, 3]: 0.00 ± 0.00%
Weight of mice, Day 0 [2, 3]: 21.03 ± 0.47 g
weights of animals on Day 4 after administration ([2]; Day 4 (G7: Day 4 and Day 6), p<0.05): significantly reduced
Weight change rate, Day 4 [2, 4]: −8.40 ± 2.65 %
Weight of mice, Day 4 [2, 4]: 19.30 ± 0.85 g
weight loss rate on Day 4 after administration ([2]; Day 4, G4 350 mg/kg, G5 325 mg/kg, G7 250 mg/kg, single IP): less than 10%
Weight change rate, Day 6 [2, 5]: −1.16 ± 2.31%
Weight of mice, Day 6 [2, 5]: 20.82 ± 0.81 g
Weight change rate, Day 8 [2, 6]: 2.81 ± 1.37%
Weight of mice, Day 8 [2, 6]: 21.63 ± 0.62 g
Weight change rate, Day 11 [2, 7]: 4.96 ± 1.42%
Weight of mice, Day 11 [2, 7]: 22.07 ± 0.49 g
Weight change rate, Day 13 [2, 8]: 7.84 ± 1.39 %
Weight of mice, Day 13 [2, 8]: 22.67 ± 0.45 g
Weight change rate, Day 15 [2, 9]: 6.31 ± 1.39 %
Weight of mice, Day 15 [2, 9]: 22.35 ± 0.49 g
Weight change rate, Day 18 [2, 10]: 8.28 ± 1.61 %
Weight of mice, Day 18 [2, 10]: 22.75 ± 0.38 g
Weight change rate, Day 20 [2, 11]: 9.18 ± 1.65 %
Weight of mice, Day 20 [2, 11]: 22.95 ± 0.50 g
Weight change rate, Day 22 [2, 12]: 10.41 ± 2.03%
Weight of mice, Day 22 [2, 12]: 23.20 ± 0.47 g
Day 22 Mortality ([2]; Day 22, single IP dose (mg/kg)): 0%
body weight compared with model control group ([2]; G4 Day 18 to Day 20 (p<0.05), G5 Day 13 to Day 20 (p<0.05~0.01)): significantly increased
clinical symptoms ([2]; after single IP dose, compared with model control group): no significant differences in clinical symptoms
